Consider six compounds from patent publication US20060160785A1, “Ezetimibe polymorphs” (priority 2004, published 2006).

In brackets after ≈: the same amount, converted by molar mass. Entries after “also recorded” stand apart in the source; their conditions may differ.

Data set [1] is described as follows: Particle size distribution by Malvern laser diffraction. It counts as physicochemical. The note with it: prime particles with sonication. The protocol: A Malvern Laser Diffraction instrument was used to characterize the particle size distribution of ezetimibe. A Mastersizer S model equipped with a small cell dispersion unit MS1 with a digital dispersion unit controller was used. The measurement was done using range lens 300RF (working range 0.05-900 mcm), beam length: 2.40 mm and presentation 3NHE. In this case, a solution of dioctyl sulfosuccinate sodium salt in n-hexane was used as a dilution medium. The measurement was started after 1 minute of recirculation after suspension addition into measurement cell at speed rate 2000±10 rpm.
The suspension was prepared of 0.1 g sample in solution 0.065% dioctyl sulfosuccinate sodium salt in n-hexane by vortex for 10 seconds and by sonication for 30 seconds. According to the accepted rules of Good Manufacture Procedures, the sample of ezetimibe is preferably measured after a successful blank measurement (% obscuration NMT 0.1% is performed.

The nature of data set [2]: Effect of pressing on crystalline stability. It counts as physicochemical. The note with it: pressed 1 minute, approximately 1300 psi. The protocol: Crystalline stability of Form A and Form B was tested by pressing each of the forms for about 1 minute under a pressure of about 1300 psi. […] Form A is also stable under pressing.
Forms A and B were studied under pressure. The forms were pressed for 1 minute under a pressure of approximately 1300 psi.

Data set [3] can be described thus: Transformation under different relative humidities (XRD and KF). It counts as physicochemical. The note with it: for Crystal form / Water content by KF: 25-30° C. Here is the method: 500 mg samples were placed in an open glass bottle at a temperature of 25° C. to 30° C., under various humidity for a sufficient time (1-14 days) for each sample to equilibrate. At the end of each time period, each sample was removed and analyzed by XRD and by KF. The results are summarized below in Tables 6-7 for starting Forms A and B, respectively.

Data set [4] is described as follows: Transformation of ezetimibe crystal forms by heating (XRD). The data set is classed as physicochemical. An excerpt:
In the following examples, the forms of ezetimibe were identified using Scintag X-ray powder diffractometer model X'TRA, Cu-tube solid state detector. The sample holder was a round standard aluminum sample holder with rough zero background quartz plate with a cavity of 25 (diameter) X 0.5 mm (depth). The scanning parameters were range: 2-40 degrees two-theta; scan mode: continuous scan; step size: 0.05 deg.; and a rate of 3 deg/min.
After two hours, each sample was removed and analyzed by XRD.

A short description of data set [5]: Micronization (milling) crystal form stability. The data set is classed as physicochemical. The protocol: Micronization of Form B is preferably carried out by milling Form B using a feed air rate of about 6 bar and a grinding air pressure of about 5 bar, for about 20 to about 30 minutes.
Form B was milled by a 50 mm micronizer for about 20 to 30 minutes. The feed air rate was 6.0 bar and the grinding air was 5.0 bar. The sample was analyzed before and after micronization by XRD. During micronization 65% (estimated by XRD and by KF) of Form B converted to Form A. The estimated water content is 1-2% by weight. Micronization of Form A on the other hand results in Form A.

A short description of data set [6]: Stability of Form B in water slurry. The data set is classed as physicochemical. Here is the method:
Ezetimibe Form B was stirred in soft water (25 ml) for 4 h at room temperature (heavy slurry). The mixture was filtered and washed with water (20 ml). The wet sample, after washing, was Form B. The solid was dried under vacuum at 45° C. for 18 hrs. The dry sample contained Form B (20-30% by weight) and Form A. 95% yield.

The nature of data set [7]: Storage of micronized Form A and B mixture at 30° C., 100% RH. It counts as physicochemical. The note with it: 8 days. The protocol:
(§1) 1 g mixture of micronized Form A and B was stored at 30° C. under 100% RH for 8 days. The mixture of Form A and Form B converted to 100% Form B after storage. Micronized Form B contained 4.1% water by weight based on Karl Fischer analysis. The micronized sample was analyzed before and after storage by XRD. The material was dispersed in light mineral oil before measurement for microscope observation. Form B was in the shape of needles and plates.

A short description of data set [8]: Maximum particle size by microscope observation. It counts as physicochemical. Here is the method:
as §1
(§2) Table 8 illustrates the maximum particle size and specific surface area of ezetimibe Form B before and after micronization. The maximum particle size was determined by microscope observation.

Data set [9] can be described thus: Specific surface area (Coulter SA3100, BET). It counts as physicochemical. The protocol:
Specific surface area was measured using the following parameters:
Instrument: Coulter SA3100
as §2

The nature of another data set: Solubility of ezetimibe. The following applies: water. The data set is classed as physicochemical.
The conditions of data set [10]: cited from earlier work.
The conditions of data set [11]: reported; cited from earlier work.
Setting [12] is: 50 mm micronizer, 20 to 30 minutes.

For the compound `O=C1[C@H](CC[C@H](O)c2ccc(F)cc2)[C@@H](c2ccc(O)cc2)N1c1ccc(F)cc1` [Form A, 1-(4-fluorophenyl)-3(R)-[3-(4-fluorophenyl)-3(S)-hydroxypropyl]-4(S)-(4-hydroxyphenyl)-2-azetidinone], the “d (0.5)” value in data set [1] is listed as 3.18-3.33 microns. In addition, the “d (0.9)” value in data set [1] is 7.95-8.05 microns. Moreover, the “d(0.1)” value in [1] is 0.39 microns. Moreover, the “Sample after pressing (crystal form)” value in data set [2] is recorded as “stable; also recorded: Form A + ˜5% B”. Further, the Crystal form entry was “Form A” in [3] (RH 0%, 12 days); “Form A + ˜5% B*” in [3] (RH 20%, 7 days); “Form A + ˜5-10% B*” in data set [3] (RH 40%, 12 days); “Form B” in data set [3] (RH 80%, 12 days); “Form B” in [3] (RH 100%, 1 day). Moreover, the “Water content by KF” value in [3] (RH 0%, 12 days) was found to be 0.2 wt %; in [3] (RH 20%, 7 days) it was 0.2 wt %; in [3] (RH 40%, 12 days), 0.3 wt %; in data set [3] (RH 80%, 12 days), 4.5 wt %; in data set [3] (RH 100%, 1 day), 4.3 wt %. The “heat transformation result (crystal form by XRD)” value (“heat transformation result” below) in data set [4] (60° C., 2 h, atmospheric oven) is reported as “Form A”; in data set [4] (90° C., 2 h, atmospheric oven), “Form A”; in data set [4] (110° C., 2 h, atmospheric oven), “Form A”. In data set [4] (even at high temperatures), the stability upon heating result is on record as “stable”. The “crystal form after micronization” value in data set [5] (setting [12]) is “Form A”. In addition, in data set [5] (milling, feed air 6 bar, grinding air 5 bar), the stability upon micronization result was “stable”.
On to `O=C1[C@H](CC[C@H](O)c2ccc(F)cc2)[C@@H](c2ccc(O)cc2)N1c1ccc(F)cc1` [Micronized Form B], for which, in data set [6], the stability upon slurrying result is reported as “stable”. Further, the “stability in relative humidity” value in [3] (relative humidity of about 40% to about 100%) is “stable”. Besides, in data set [7], the “water content by Karl Fischer after storage” value was found to be 4.1 % by weight.
`O=C1[C@H](CC[C@H](O)c2ccc(F)cc2)[C@@H](c2ccc(O)cc2)N1c1ccc(F)cc1` [Form B, 1-(4-fluorophenyl)-3(R)-[3-(4-fluorophenyl)-3(S)-hydroxypropyl]-4(S)-(4-hydroxyphenyl)-2-azetidinone]: the “Sample after pressing (crystal form)” value in data set [2] was “retains its crystalline form; also recorded: Form B”. Besides, the “Form B content of dry sample after water slurry” value in data set [6] (dried under vacuum at 45° C. for 18 hrs, remainder Form A) was 20-30 % by weight. Moreover, in data set [6] (soft water, 4 h, room temperature, filtered and washed), the “crystal form of wet sample after water slurry” value was “Form B”. For the same compound, the Maximum particle size amounted to 20 μm in [8] (After micronization) and 400 μm in [8] (Before micronization). Further, the SSA in [9] (After micronization) is recorded as 6.8 m^2/g; in data set [9] (Before micronization), 3.4 m^2/g. In addition, the Crystal form entry is listed as “Form A” in data set [3] (RH 0%, 14 days); “Form A + ˜5% B*” in data set [3] (RH 20%, 7 days); “Form B” in data set [3] (RH 40%, 14 days); “Form B” in data set [3] (RH 80%, 14 days); “Form B” in data set [3] (RH 100%, 14 days). The “Water content by KF” value in data set [3] (RH 0%, 14 days) is 0.1 wt %; in data set [3] (RH 20%, 7 days), 0.2 wt %; in [3] (RH 40%, 14 days) it was 4.0 wt %; in [3] (RH 80%, 14 days), 4.3 wt %; in data set [3] (RH 100%, 14 days) it was 4.4 wt %. The “heat transformation result” value in data set [4] (45° C., 18 h) is “Form A”; in [4] (60° C., 2 h, atmospheric oven), “Form A”; in [4] (90° C., 2 h, atmospheric oven), “Form A”; in [4] (110° C., 2 h, atmospheric oven), “Form A”. The “estimated water content after micronization” value in [5] (setting [12]) is on record as 1-2 % by weight. Moreover, in data set [5] (50 mm micronizer, 20 to 30 minutes, estimated by XRD and by KF), the “Form B converted to Form A during micronization” value is reported as 65%.
Turning to `O=C1[C@H](CC[C@H](O)c2ccc(F)cc2)[C@@H](c2ccc(O)cc2)N1c1ccc(F)cc1` [mixture of micronized Form A and B], in [7], the “Form B content after storage” value was 100%.
With `O=C1[C@H](CC[C@H](O)c2ccc(F)cc2)[C@@H](c2ccc(O)cc2)N1c1ccc(F)cc1` [Ezetimibe, 1-(4-fluorophenyl)-3(R)-[3-(4-fluorophenyl)-3(S)-hydroxypropyl]-4(S)-(4-hydroxyphenyl)-2-azetidinone], the solubility (as a rule, the dissolved amount per volume that the medium holds) in “Solubility of ezetimibe” turned out to be 10 µg/mL (≈ 24.4 µM). Besides, the “solubility in ethanol, methanol, and acetone” value in data set [10] (ethanol, methanol, acetone) is “freely to very soluble”. For the same compound, the “solubility in water” value in data set [10] (water) is given as “practically insoluble”. For the same compound, in data set [11], the “stability at ambient temperature” value was “stable”.
Regarding `O=C1[C@H](CC[C@H](O)c2ccc(F)cc2)[C@@H](c2ccc(O)cc2)N1c1ccc(F)cc1` [Amorphous Form, 1-(4-fluorophenyl)-3(R)-[3-(4-fluorophenyl)-3(S)-hydroxypropyl]-4(S)-(4-hydroxyphenyl)-2-azetidinone], the “heat transformation result” value is on record as “Amorphous Form” in [4] (60° C., 2 h, atmospheric oven) and “Form A” in data set [4] (90° C., 2 h, atmospheric oven). Moreover, the “temperature at which it transforms to Form A” value in data set [4] (heating) is “above 60 °C”.
